Laboratory results reported in patent US20210171948A1, “COMPOSITIONS AND METHODS FOR TARGETING GLYPICAN-2 IN THE TREATMENT OF CANCER” (Shepherd Therapeutics, Inc., priority 2019, published 2021).
Strand notation (5' to 3'): a small letter for the sugar, then the base; units joined by * are phosphorothioate-linked, units joined directly phosphodiester-linked; [ ] holds rarer units or linkages, { } end groups; capitals alone tell only the bases. d = 2'-deoxy (DNA); r = 2'-OH (RNA)

Key:
SK-N-BE2 cells [1] = test: Cyclophosphamide IC50 in siRNA-transfected cells, Cell Titer Glo 2.0 viability (Example 7); type: cell-based; conditions: for Data Summary: effect of knockdown on sensitivity to cyclophosphamide: SK-N-BE2; for IC50: SK-N-BE2 cells transfected with the labelled siRNA, cyclophosphamide added 24 hr post transfection, 72 hour incubation
Protocol: (§1) GPC2 mRNA expression was reduced with the indicated siRNAs and changes in cell viability were assessed in multiple neuroblastoma cell lines. Cells were transfected with either a control siRNA or with GPC2 siRNA sequences 3, 5 or 7 from Table 7 using the RNAiMAX Lipofectamine kit (Invitrogen, Carlsbad, Calif.) as previously described in 96 wells for viability assays. Cyclophosphamide was added at increasing concentrations (0-20 uM) to transfected cells at 24 hr post transfection. Following a 72 hour incubation period, viability measurements were made using Cell Titer Glo 2.0.

SH-SY5Y cells [2] = test: as above; type: cell-based; conditions: for Data Summary: effect of knockdown on sensitivity to cyclophosphamide: SH-SY5Y; for IC50: SH-SY5Y cells transfected with the labelled siRNA, cyclophosphamide added 24 hr post transfection, 72 hour incubation
Protocol: as §1

CHLA-90 cells [3] = test: as above; type: cell-based; conditions: for IC50: CHLA-90 cells transfected with the labelled siRNA, cyclophosphamide added 24 hr post transfection, 72 hour incubation; for Data Summary: effect of knockdown on sensitivity to cyclophosphamide: CHLA-90
Protocol: as §1

CHP212 cells [4] = test: as above; type: cell-based; conditions: for Data Summary: effect of knockdown on sensitivity to cyclophosphamide: CHP212; for IC50: CHP212 cells transfected with the labelled siRNA, cyclophosphamide added 24 hr post transfection, 72 hour incubation
Protocol: as §1

CHLA-136 cells = test: Doxorubicin IC50 in siRNA-transfected cells, Cell Titer Glo viability (Example 8); type: cell-based; conditions: for IC50: CHLA-136 cells transfected with the labelled siRNA, doxorubicin added 24 hours post transfection, 72 hour incubation
Protocol: as §1, with “reduced” for “reduced with the indicated siRNAs”, “with GPC-2” for “with GPC2”, “assays. Doxorubicin” for “assays. Cyclophosphamide”, “concentrations (0-5” for “concentrations (0-20”, “24 hours” for “24 hr”, “Titer Glo.” for “Titer Glo 2.0.”

KELLY cells [5] = test: as above; type: cell-based; conditions: for Data Summary: effect of knockdown on sensitivity to doxorubicin: KELLY; for IC50: KELLY cells transfected with the labelled siRNA, doxorubicin added 24 hours post transfection, 72 hour incubation
Protocol: as §1, with “reduced” for “reduced with the indicated siRNAs”, “with GPC-2” for “with GPC2”, “assays. Doxorubicin” for “assays. Cyclophosphamide”, “concentrations (0-5” for “concentrations (0-20”, “24 hours” for “24 hr”, “Titer Glo.” for “Titer Glo 2.0.”

SKNAS cells [6] = test: as above; type: cell-based; conditions: for Data Summary: effect of knockdown on sensitivity to doxorubicin: SKNAS; for IC50: SKNAS cells transfected with the labelled siRNA, doxorubicin added 24 hours post transfection, 72 hour incubation
Protocol: as §1, with “reduced” for “reduced with the indicated siRNAs”, “with GPC-2” for “with GPC2”, “assays. Doxorubicin” for “assays. Cyclophosphamide”, “concentrations (0-5” for “concentrations (0-20”, “24 hours” for “24 hr”, “Titer Glo.” for “Titer Glo 2.0.”

CHLA-172 cells = test: as above; type: cell-based; conditions: for IC50: CHLA-172 cells transfected with the labelled siRNA, doxorubicin added 24 hours post transfection, 72 hour incubation
Protocol: as §1, with “reduced” for “reduced with the indicated siRNAs”, “with GPC-2” for “with GPC2”, “assays. Doxorubicin” for “assays. Cyclophosphamide”, “concentrations (0-5” for “concentrations (0-20”, “24 hours” for “24 hr”, “Titer Glo.” for “Titer Glo 2.0.”

GPC2 mRNA = GPC2 mRNA knockdown by qPCR in TC-32 Ewing's sarcoma cells transfected with siRNA (Example 2); type: cell-based, human; conditions: TC-32 cells; 72 hours post transfection
Protocol: siRNAs 1-5 from Table 7 were diluted to 40 nM in OptiMEM media and mixed in a 1:3 ratio (weight by volume) with RNAiMAX. This was incubated for 15 minutes at room temperature and dispensed onto cells plated in a 6 well tissue culture plate. Total RNA samples were collected at either 72 hours post transfection to compare knockdown efficiency (FIG. 2A), or at 24, 48, 72 or 96 hours post transfection to determine the extent of GPC2 mRNA knockdown over time (FIG. 2B). Expression levels of mRNA of GPC2 were measured in these samples using primers specific for GPC2 obtained commercially from Thermofisher (Carlsbad, Calif.) and standard qPCR technique.

[7] = tested on: CHP212, SKNAS and SHSY5Y neuroblastoma cell lines; test: Cell viability after siRNA transfection, 96 hour (Example 4, FIG. 3B); type: cell-based; conditions: 96 hour incubation (FIG. 3B)
Protocol: GPC2 mRNA knockdown was assessed in multiple neuroblastoma cell lines. Cells were transfected with either a scrambled control siRNA, with GPC2 siRNA sequences 3 or 5 from Table 7, or with siRNA sequences generated by Dharmacon (sequences 12-15 from Table 7) using the RNAiMAX Lipofectamine kit (Invitrogen, Carlsbad, Calif.) as previously described. Following a 96 hour incubation period, total RNA samples were collected to compare knockdown efficiency and viability was measured in parallel plated cells.

SK-N-BE2 cells [8] = test: Topotecan IC50 in siRNA-transfected cells, Cell Titer Glo 2.0 viability (Example 10); type: cell-based; conditions: for Data Summary: effect of knockdown on sensitivity to topotecan: SK-N-BE2; for IC50: SK-N-BE2 cells transfected with the labelled siRNA, topotecan added 24 hours post transfection, 72 hour incubation
Protocol: as §1, with “reduced” for “reduced with the indicated siRNAs”, “sequences” for “sequences 3,”, “Topotecan” for “Cyclophosphamide”, “(0-5” for “(0-20”, “hours” for “hr”

KELLY cells [9] = test: as above; type: cell-based; conditions: for Data Summary: effect of knockdown on sensitivity to topotecan: KELLY; for IC50: KELLY cells transfected with the labelled siRNA, topotecan added 24 hours post transfection, 72 hour incubation
Protocol: as §1, with “reduced” for “reduced with the indicated siRNAs”, “sequences” for “sequences 3,”, “Topotecan” for “Cyclophosphamide”, “(0-5” for “(0-20”, “hours” for “hr”

SKNAS cells [10] = test: as above; type: cell-based; conditions: for Data Summary: effect of knockdown on sensitivity to topotecan: SKNAS; for IC50: SKNAS cells transfected with the labelled siRNA, topotecan added 24 hours post transfection, 72 hour incubation
Protocol: as §1, with “reduced” for “reduced with the indicated siRNAs”, “sequences” for “sequences 3,”, “Topotecan” for “Cyclophosphamide”, “(0-5” for “(0-20”, “hours” for “hr”

SH-SY5Y cells [11] = test: as above; type: cell-based; conditions: for Data Summary: effect of knockdown on sensitivity to topotecan: SH-SY5Y; for IC50: SH-SY5Y cells transfected with the labelled siRNA, topotecan added 24 hours post transfection, 72 hour incubation
Protocol: as §1, with “reduced” for “reduced with the indicated siRNAs”, “sequences” for “sequences 3,”, “Topotecan” for “Cyclophosphamide”, “(0-5” for “(0-20”, “hours” for “hr”

CHLA-90 cells [12] = test: as above; type: cell-based; conditions: for Data Summary: effect of knockdown on sensitivity to topotecan: CHLA-90; for IC50: CHLA-90 cells transfected with the labelled siRNA, topotecan added 24 hours post transfection, 72 hour incubation
Protocol: as §1, with “reduced” for “reduced with the indicated siRNAs”, “sequences” for “sequences 3,”, “Topotecan” for “Cyclophosphamide”, “(0-5” for “(0-20”, “hours” for “hr”

CHP212 cells [13] = test: as above; type: cell-based; conditions: for Data Summary: effect of knockdown on sensitivity to topotecan: CHP212; for IC50: CHP212 cells transfected with the labelled siRNA, topotecan added 24 hours post transfection, 72 hour incubation
Protocol: as §1, with “reduced” for “reduced with the indicated siRNAs”, “sequences” for “sequences 3,”, “Topotecan” for “Cyclophosphamide”, “(0-5” for “(0-20”, “hours” for “hr”

[14] = tested on: CHP212 neuroblastoma cell line; test: Cell viability after siRNA transfection, 96 hour (Example 4, FIG. 4B); type: cell-based; conditions: 96 hour incubation (FIG. 4B)
Protocol: The extent of GPC2 mRNA reduction was assessed with additional GPC2 siRNA sequences in the CHP212 neuroblastoma cell line. Cells were transfected with either a scrambled control siRNA or with GPC2 siRNA sequences 3 or 5, or with siRNA sequences 6-11 (Sigma) using the RNAiMAX Lipofectamine kit (Invitrogen, Carlsbad, Calif.) as previously described. Following a 96 hour incubation period, total RNA samples were collected and viability was measured in parallel plated cells.

Row | Substance | Data Summary: effect of knockdown on sensitivity to cyclophosphamide (SK-N-BE2 cells [1]) | IC50 (SK-N-BE2 cells [1]) [nM] | Data Summary: effect of knockdown on sensitivity to cyclophosphamide (SH-SY5Y cells [2]) | IC50 (SH-SY5Y cells [2]) [nM] | IC50 (CHLA-90 cells [3]) [µM] | Data Summary: effect of knockdown on sensitivity to cyclophosphamide (CHP212 cells [4]) | IC50 (CHP212 cells [4]) [nM] | IC50 (CHLA-136 cells) [nM] | Data Summary: effect of knockdown on sensitivity to doxorubicin (KELLY cells [5]) | IC50 (KELLY cells [5]) [nM] | Data Summary: effect of knockdown on sensitivity to doxorubicin (SKNAS cells [6]) | IC50 (SKNAS cells [6]) [nM] | IC50 (CHLA-172 cells) [nM] | Degree of GPC2 knockdown among siRNA sequences 1-5 (GPC2 mRNA) | Viability decrease among sequences 3, 5, 12-15 [7] | Data Summary: effect of knockdown on sensitivity to cyclophosphamide (CHLA-90 cells [3]) | Data Summary: effect of knockdown on sensitivity to topotecan (SK-N-BE2 cells [8]) | IC50 (SK-N-BE2 cells [8]) [nM] | Data Summary: effect of knockdown on sensitivity to topotecan (KELLY cells [9]) | IC50 (KELLY cells [9]) [nM] | further results
1 | GPC2 siRNA 3: siRNA duplex: sense CCUGCUUGGACCUCGAUAA[dT][dT] (SEQ ID NO: 207), anti-sense UUAUCGAGGUCCAAGCAGG[dT][dT] (SEQ ID NO: 208) (sense CCUGCUUGGACCUCGAUAANN; antisense UUAUCGAGGUCCAAGCAGGNN; 3' dTdT overhangs, chemistry not fully specified; listed as Homo sapiens) | increases sensitivity to | 2410 | increases sensitivity to | 1500 | 30 | increases sensitivity to | 870 | 170 | not increase sensitivity | 70 | increases sensitivity to | 40 | 2000 | greatest degree of GPC2 knockdown | greater viability decrease | – | – | – | – | – | –
2 | GPC2 siRNA 5: siRNA duplex: sense CUCAGUAGCCCAGCACUCU[dT][dT] (SEQ ID NO: 211), anti-sense AGAGUGCUGGGCUACUGAG[dT][dT] (SEQ ID NO: 212) (sense CUCAGUAGCCCAGCACUCUTT; antisense AGAGUGCUGGGCUACUGAGTT; sugars from the 5' end r19 d2, backbone not given here; listed as Homo sapiens) | increases sensitivity to | 1800 | increases sensitivity to | 300 | 20 | increases sensitivity to | 450 | 80 | not increase sensitivity | 60 | increases sensitivity to | 20 | 900 | greatest degree of GPC2 knockdown | greater viability decrease | increases sensitivity to | not increase sensitivity to topotecan | 10 | not increase sensitivity to topotecan | 60 | Data Summary: effect of knockdown on sensitivity to doxorubicin (CHLA-136 cells; CHLA-136): KD with sequence 5 increases; Data Summary: effect of knockdown on sensitivity to doxorubicin (CHLA-172 cells; CHLA-172): KD with sequence 5 increases; Data Summary: effect of knockdown on sensitivity to topotecan (SKNAS cells [10]): increases sensitivity to topotecan; IC50 (SKNAS cells [10]): 20 nM; Data Summary: effect of knockdown on sensitivity to topotecan (SH-SY5Y cells [11]): not increase sensitivity to topotecan; IC50 (SH-SY5Y cells [11]): 40 nM; Data Summary: effect of knockdown on sensitivity to topotecan (CHLA-90 cells [12]): not increase sensitivity to topotecan; IC50 (CHLA-90 cells [12]): 110 nM; Data Summary: effect of knockdown on sensitivity to topotecan (CHP212 cells [13]): not increase sensitivity to topotecan; IC50 (CHP212 cells [13]): 10 nM; Viability decrease among sequences 3, 5, 6-11 [14]: greater viability decrease
3 | GPC2 siRNA 7: siRNA duplex: sense CUCCUUUCUGGUUCACACA[dT][dT] (SEQ ID NO: 215), anti-sense UGUGUGAACCAGAAAGGAG[dT][dT] (SEQ ID NO: 216) (sense rCrUrCrCrUrUrUrCrUrGrGrUrUrCrArCrArCrAdTdT; antisense rUrGrUrGrUrGrArArCrCrArGrArArArGrGrArGdTdT; listed as Homo sapiens) | increases sensitivity to | 410 | increases sensitivity to | 940 | 10 | increases sensitivity to | 1200 | – | – | – | – | – | – | – | – | increases sensitivity to | not increase sensitivity to topotecan | 10 | not increase sensitivity to topotecan | 20 | Data Summary: effect of knockdown on sensitivity to topotecan (SKNAS cells [10]): increases sensitivity to topotecan; IC50 (SKNAS cells [10]): 20 nM; Data Summary: effect of knockdown on sensitivity to topotecan (SH-SY5Y cells [11]): not increase sensitivity to topotecan; IC50 (SH-SY5Y cells [11]): 40 nM; Data Summary: effect of knockdown on sensitivity to topotecan (CHLA-90 cells [12]): not increase sensitivity to topotecan; IC50 (CHLA-90 cells [12]): 140 nM; Data Summary: effect of knockdown on sensitivity to topotecan (CHP212 cells [13]): not increase sensitivity to topotecan; IC50 (CHP212 cells [13]): 10 nM; Viability decrease among sequences 3, 5, 6-11 [14]: greater viability decrease
